Source: patent US4853221A, “Method for treating non-small cell lung cancer, head and neck cancers and breast cancer” (Warner-Lambert Company, priority 1987, dated 1989)

What was measured:
salivary gland cancer = experiment: Phase I clinical trials, salivary gland cancer; type: in vivo, human; settings: single agent
Protocol: Several Phase I clinical trials employing trimetrexate in human patients were carried out. In one study, 36 patients were treated with trimetrexate as a single agent at daily doses of 0.5 mg/m^2 /day to 12 mg/m^2 /day administered intravenously for five days.
In additional Phase I clinical studies, patients were administered trimetrexate with single intravenous doses ranging between 5 and 450 mg/m^2 and with weekly doses of slightly greater than 100 mg/m^2.

Ovarian tumor = experiment: Human tumor cloning system, ovarian tumors; type: cell-based; settings: one hour, 6 specimens
Source text: (§1) The activity of trimetrexate was compared with that of methotrexate in tests with a human tumor cloning system (Latham, et al., Proc. Am. Assoc. Cancer Res., 24: 278 (1983)). The data from these tests appear in Table III were the activities are expressed as the numbers of tumors with 50% or greater reduction in tumor colony forming units after one hour exposure to the drug.

Renal tumor = experiment: Human tumor cloning system, renal tumors; type: cell-based; settings: one hour, 6 specimens
Source text: as §1

L1210 = experiment: Antitumor activity against L1210 leukemia in mice; type: in vivo, mouse; settings: for Life Span % ILS / Life Span % T/C: ip daily, Days 1-9
Protocol: (§2) The growth inhibition properties of 5-methyl-6-[[(3,4,5-trimethoxyphenyl)amino]methyl]-2,4-quinazolinediamine (trimetrexate) against several transplanted murine tumors were evaluated employing the antitumor screening program of the Drug Evaluation Branch of the National Cancer Institute. The protocols for these tests is described in Cancer Chemotherapy Reports, 3: 1-103 (1972). The dosing schedules are results from these tests appear in Table IV.
In the L1210, P388, and B-16 melanoma models, results are expressed as a percentage of median control survival time. Percentage of increase in survival time and/or cures (30 day survivors) were the parameters used to measure the effectiveness of the agents. An initial median survival value for treated over control percentage (% T/C) equal to or greater than 125% was considered indicative of activity. For confirmatory activity, two multidose assays must show % T/C values equal to or greater than 150%.
(§3) Percent increase in median life span (% ILS) values appearing in the tables were calculated from the formula; 100×(median life span in days of treated mice minus median life span in days of untreated mice) divided by median life span in days of untreated control mice. That is, % ILS=[100×(T-C)]/C. % T/C and %ILS are directly interconvertible by the formula % ILS=% T/C -100.
L1210 Leukemic Cells (10^5 /mouse) and P388 leukemic cells (10^6 /mouse)were in the ascites form and were transferred to BD2F1 or CD2F1 mice by intraperitoneal (ip) injection of 0.1 ml of cells taken from animals bearing 6- to 7-day old tumors. Leukemic cells were injected ip one day prior to the start of treatment.
(§4) In all of the mouse tumor studies described above, routine controls consisted of matching ten normal mice (with no tumors) to each tumor-bearing treatment group and injecting them with the same drug at the same dosages, schedules, days of administration, and drug route as the tumor-bearing mice. In this way, drug-induced toxicity (lethality and weight loss) could be clearly separated from the effects of the drug on the tumors.

Lung tumor = experiment: Human tumor cloning system, lung tumors; type: cell-based; settings: one hour, 8 specimens
Source text: as §1

Oral bioavailability = settings: in vivo, administered orally
Colon 38 = experiment: Antitumor activity against colon adenocarcinoma 38 in mice; type: in vivo, mouse
[1] = tested on: metastatic squamous cell cancer of the head and neck; experiment: Phase II trial, metastatic squamous cell cancer of the head and neck; type: in vivo, human
Protocol: The efficacy and safety of trimetrexate in the treatment of patients with metastatic squamous cell cancer of the head and neck was evaluated in an 11-center Phase II study.
The primary sites of disease in the patients included head and neck (not otherwise specified), hypopharynx, floor of the mouth, oropharynx, tongue, and other parts of the mouth, nasal cavity, and larynx.
Patients were initially treated intravenously with 8 mg/m^2 /day of trimetrexate on Days 1 through 5 of a 21-day treatment cycle. Patients were evaluated after each treatment course and were withdrawn from the study if progressive disease was documented. Patients were eligible to received six courses of treatment if stable disease was documented, or were eligible to receive continued treatment with trimetrexate if a response was documented.

Colon 26 = experiment: Antitumor activity against colon adenocarcinoma 26 in mice; type: in vivo, mouse; settings: for Life Span % ILS / Life Span % T/C: ip every 4 days, Days 1-5
Protocol: as §2, §3
Colon adenocarcinoma Nos. 26 and 38. Colon adenocarcinoma 26 was propagated in Balb/cj mice for 12 to 15 days. After this time, 0.5 ml of a 1% tumor brei, prepared from several excised subcutaneously passaged tumors, was implanted intraperitoneally into CDF1 mice. Animals were treated with drug ip on Days 1 and 5 following tumor implantation. The median survival time of the treated animals was determined and expressed as a percentage of the median survival time of untreated control animals.
as §4

Melanoma = experiment: Human tumor cloning system, melanoma; type: cell-based; settings: one hour, 5 specimens
Source text: as §1

[2] = tested on: human cell lines (K-562, T-cell 8402, B-cell 8392); experiment: Comparison with methotrexate against human cell lines in vitro; type: cell-based
Protocol: Logarithmically growing L1210 cells (approximately 3×10^5 cells/ml) were diluted with Fischer's medium (containing 10% horse serum) to an approximate concentration of 5×10^4 cells/ml. Cells were planted in duplicate into 15 ml culture tubes containing either no drug or various amounts of drug, and incubated for 48 hours at 37° C. before being counted.
Trimetrexate was also evaluated in a similar manner side-by-side with methotrexate for its effect on the growth of three additional murine cell lines (L5178Y, Sarcoma-180, and Walkler-256) and three human cell lines (acute myelogenous leukemia K-562, T-cell 8402, and B-cell 8392), propagated in vitro.

[3] = optimal dose 20 mg/kg (dose range 80-5)
[4] = optimal dose 80 mg/kg (dose range 80-5)
[5] = optimal dose 30 mg/kg (dose range 120-3.75)
[6] = optimal dose 60 mg/kg (dose range 120-3.75)

Question: Which “patients with favorable responses” value (salivary gland cancer) does the source give for `COc1cc(NCc2ccc3nc(N)nc(N)c3c2C)cc(OC)c1OC` [Trimetrexate, 5-methyl-6-[[(3,4,5-trimethoxyphenyl)amino]methyl]-2,4-quinazolinediamine] here?
Answer: two

Question: What about the “Number of Tumors with 50% or Greater Decrease in Tumor Colony Forming Units” value (Ovarian tumor; trimetrexate 0.1 μg/ml) of the same compound?
Answer: 1

Question: What about the “Number of Tumors with 50% or Greater Decrease in Tumor Colony Forming Units” value (Ovarian tumor; trimetrexate 1.0 μg/ml) of the same compound?
Answer: 1

Question: What about the “Number of Tumors with 50% or Greater Decrease in Tumor Colony Forming Units” value (Renal tumor; trimetrexate 0.1 μg/ml) of the same compound?
Answer: 1

Question: And the “Number of Tumors with 50% or Greater Decrease in Tumor Colony Forming Units” value (Renal tumor; trimetrexate 1.0 μg/ml)?
Answer: 1

Question: And the “antitumor activity” value (L1210; mouse, in vivo)?
Answer: good activity

Question: And the “Life Span % ILS” value (L1210; [3])?
Answer: 72%

Question: And the “Life Span % T/C” value (L1210; [3])?
Answer: 172%

Question: And the “Life Span % ILS” value (L1210; [4])?
Answer: 96%

Question: What about the “Life Span % T/C” value (L1210; [4]) of the same compound?
Answer: 196%

Question: What about the “Number of Tumors with 50% or Greater Decrease in Tumor Colony Forming Units” value (Lung tumor; trimetrexate 0.1 μg/ml) of the same compound?
Answer: 1

Question: And the “Number of Tumors with 50% or Greater Decrease in Tumor Colony Forming Units” value (Lung tumor; trimetrexate 1.0 μg/ml)?
Answer: 1

Question: What about the bioavailability (Oral bioavailability) of the same compound?
Answer: ~80%

Question: What about the “antitumor activity” value (Colon 38; mouse, in vivo) of the same compound?
Answer: good activity

Question: And the “Tumor Weight Inhibition % TWI” value (Colon 38; optimal dose 60 mg/kg (dose range 60-1.88), Sc every 7 days, Days 2-9)?
Answer: 85%

Question: And the “patients with partial response” value ([1]; 38 evaluable patients, initial 8 mg/m^2/day iv Days 1-5 of 21-day cycle)?
Answer: Ten

Question: And the partial response rate ([1]; 95% confidence interval 12-40%, evaluable patients)?
Answer: 26%

Question: What about the “patients with stable disease” value ([1]; in vivo) of the same compound?
Answer: Nineteen

Question: What about the “median duration of response” value ([1]; range 4.1-59+ weeks, ten responders) of the same compound?
Answer: 12.2 weeks

Question: And the “median time to progressive disease” value ([1]; range 9.3-74+ weeks)?
Answer: 19.1 weeks

Question: And the “antitumor activity” value (Colon 26; mouse, in vivo)?
Answer: good activity

Question: What about the “Life Span % ILS” value (Colon 26; [5]) of the same compound?
Answer: 56%

Question: And the “Life Span % T/C” value (Colon 26; [5])?
Answer: 156%

Question: What about the “Life Span % ILS” value (Colon 26; [6]) of the same compound?
Answer: 115%

Question: What about the “Life Span % T/C” value (Colon 26; [6]) of the same compound?
Answer: 215%

Question: What about the “Number of Tumors with 50% or Greater Decrease in Tumor Colony Forming Units” value (Melanoma; trimetrexate 0.1 μg/ml) of the same compound?
Answer: 2

Question: What about the “Number of Tumors with 50% or Greater Decrease in Tumor Colony Forming Units” value (Melanoma; trimetrexate 1.0 μg/ml) of the same compound?
Answer: 3

Question: And the “effectiveness relative to methotrexate” value [2]?
Answer: more effective in inhibiting cell growth in vitro than was methotrexate
